Results taken from paper PMC5556071, “ATR inhibition facilitates targeting of leukemia dependence on convergent nucleotide biosynthetic pathways” (Nature Communications, 2017).
Several values for one entry are separate records, joined by “and”; a condition that tells them apart may be missing. Equal values may be shown once.

System: CEM cells
Assay: Non-targeted LC-MS metabolite profiling: percent [13C6]glucose labeling and relative metabolite levels
Format: cell-based, human
Details: CEM cells, 12 h following release from G1 arrest, replicates #1-#6
Source text: To further investigate the functions of dCK and ATR at the G1/S transition in CEM cells, a non-targeted liquid chromatography mass spectrometry (LC-MS) assay was used to determine the utilization of labeled [^13C6]glucose and [^13C9,^15N3]deoxycytidine, the main substrates for de novo and salvage nucleotide biosynthesis, respectively. Of the 166 metabolites identified in CEM cells treated with VE-822 and/or dCKi, 105 metabolites found in all four treatment groups contained glucose-derived ^13C atoms. […] These metabolites included intermediates such as rUTP, rCTP and rCDP in the de novo dCTP biosynthesis (Fig. 1d). […] However, several deoxyribonucleotides, including dCTP, were below the limit of detection of the non-targeted LC-MS approach, raising the concern that the sensitivity of this assay is not sufficient to measure the contribution of the salvage pathway or the ratio of de novo and salvage biosynthesis to these pools. To address this problem, a newly developed targeted MS assay was developed (Fig. 1e and Supplementary Fig. 3). In this assay, samples containing either extracted dNTPs or hydrolyzed DNA from labeled cells are separated by LC for detection by a triple quadrupole mass spectrometer using multiple reaction monitoring (LC-MS/MS-MRM). The first (Q1) and third (Q3) quadrupoles function as mass filters, while the second (Q2) quadrupole serves as a collision chamber (Fig. 1e). For instance, to profile the biosynthetic composition of deoxycytidine (dC) derived from hydrolyzed DNA or dCTP, an intact, protonated dC ion is selected in Q1, followed by fragmentation of the glycosidic bond, which releases protonated cytosine in Q2, that is filtered in Q3 and detected to generate an ion chromatogram. The peak areas for the ion chromatograms of salvage [^13C9,^15N3]dC (red trace), de novo [^13C5]dC (black trace, from [^13C6]glucose) and unlabeled dC (gray trace) (Fig. 1e) are used to determine the relative contributions of the de novo and salvage routes both to dCTP pools and to DNA-incorporated dCTP.
Cells were transferred into RPMI-1640 without glucose and supplemented with 10% dialyzed FBS (Gibco) containing the following labeled substrates: precursors for de novo [U-^13C6]glucose (Sigma-Aldrich, 389374) at 11 mM; precursors for purine salvage [U-^13C10,^15N5]dA (Cambridge Isotopes, CIL 3896), [^15N5]dA (Cambridge Isotopes, NLM-3895) and [^15N5]dG (Cambridge Isotopes, NLM-3899) at 5 µM or as indicated; and precursors for pyrimidine salvage: [U-^13C9,^15N3]dC (Silantes, 124603602) and [U-^13C10,^15N2]dT (Cambridge Isotopes, CNLM-3902) at 5 µM and [^15N2]orotate (Cambridge Isotopes, NLM-1048) at indicated concentrations. The cells were incubated for 12 h or as indicated before sample collection and processing. […]
Non-targeted LC-MS metabolic assays. 1 x 10^6 cells were washed with ice-cold 150 mM ammonium acetate twice before adding 1 mL of ice-cold 80% methanol with 10 nM norvaline as an internal standard. After vigorous vortexing, samples were centrifuged at maximum speed, the aqueous layer was transferred to a glass vial and the metabolites were dried under vacuum. Metabolites were resuspended in 50 μL 70% acetonitrile (ACN) and 5 μL of this solution used for the mass spectrometer-based analysis. The analysis was performed on a Q Exactive (Thermo Scientific) in polarity-switching mode with positive voltage 4.0 kV and negative voltage 4.0 kV. The mass spectrometer was coupled to an UltiMate 3000RSLC (Thermo Scientific) UHPLC system. Mobile phase A was 5 mM ammonium acetate (NH4AcO), pH 9.9, B was acetonitrile and the separation achieved on a Luna […] NH2 100 A column (150 × 2.0 mm, Phenomenex). The flow was 200 μL/min, and the gradient ran from 15% A to 95% A in 18 min, followed by an isocratic step for 9 min and re-equilibration for 7 min. Metabolites were detected and quantified as area under the curve based on retention time and accurate mass (≤ 3 p.p.m.) using the TraceFinder 3.1 (Thermo Scientific). Relative amounts of […]

COc1ccc(-c2nc([C@@H](C)Sc3nc(N)cc(N)n3)c(C)s2)cc1OCCNS(C)(=O)=O [dCKi]
Glucose labeling, Trp (C00078): 0.00%
Glucose labeling, Val (C00183): 0.00%
Relative level, PEP: 0.343
Glucose labeling, Isocaproate (listed as D): 0.00% (5×) and -2.22e-14%
Glucose labeling, Lac (listed as D): 17.43% and 30.68% and 33.28% and 15.68% and 13.00% and 14.89%
Glucose labeling, Leu/Ile (listed as D): -2.22e-14% and 0.00% (4×) and 1.11e-14%
Glucose labeling, Mal (listed as D): 22.81% and 24.17% and 24.40% and 21.37% and 22.21% and 23.38%
Glucose labeling, Met (listed as D): 0.00216% and 0.00198% and 0.00236% and 0.00202% and 0.00192% and 0.00223%
Glucose labeling, N-Carbamoyl-L-aspartate (listed as D): 0.000983% and 0.12% (2×) and 0.00101% and 100.00% (2×)
Glucose labeling, NADP+ (listed as D): 100.00% (4×) and 0.00% (2×)
Glucose labeling, Ornithine (listed as D): 0.08% (2×) and 0.12% (3×) and 0.09%
Glucose labeling, Orotate (listed as D): 5.20% and 3.14% and 4.02% and 100.00% and 0.12% (2×)
Glucose labeling, Orotidine (listed as D): 49.18% and 49.16% and 49.11% and 54.80% and 53.82% and 55.45%
Glucose labeling, P-Choline (listed as D): 0.00228% and 0.00166% (2×) and 0.00229% and 0.00101% and 0.00171%
Glucose labeling, P-Ser (listed as D): 21.30% and 20.75% and 19.61% and 16.22% and 19.77% and 14.08%
Glucose labeling, Palmitate (listed as D): 0.0136% and 0.0179% and 0.09% and 0.03% and 0.0457% and 0.04%
Glucose labeling, Pantothenate (listed as D): 0.00% (5×) and 1.11e-14%
Glucose labeling, Pro (listed as D): 9.90% and 11.07% and 10.77% and 9.63% and 9.83% and 9.85%
Glucose labeling, Pro-OH (listed as D): 0.00135% and 0.00138% and 0.000869% and 0.0017% and 0.00248% and 0.00239%
Glucose labeling, R5P (listed as D): 87.51% and 100.00% (5×)
Glucose labeling, S7P (listed as D): 85.34% and 43.01% and 49.65% and 0.26% and 34.90% and 73.97%
Glucose labeling, SAM (listed as D): 73.81% and 73.09% and 74.83% and 72.35% and 72.18% and 72.31%
Glucose labeling, Sarc (C00213) (listed as D): 0.0243% (2×) and 0.0369% (3×) and 0.0225%
Glucose labeling, Ser (C00065) (listed as D): 13.87% and 15.01% and 14.51% and 12.51% and 11.83% and 11.82%
Glucose labeling, Shikimate (C00493) (listed as D): 0.00% (5×) and 1.11e-14%
Glucose labeling, Succ (C00042) (listed as D): 0.0276% and 1.49% and 1.88% and 0.0331% and 0.0737% (2×)
Glucose labeling, T (C00214) (listed as D): 0.15% and 0.44% and 0.32% and 0.24% and 0.03% and 0.02%
Glucose labeling, Thymine (C00178) (listed as D): 0.02% (2×) and 0.00812% and 0.0214% and 0.0432% and 0.0317%
Glucose labeling, Tyr (C00082) (listed as D): 0.00% (5×) and 1.11e-14%
Glucose labeling, Tyramine (C00483) (listed as D): 0.00% (5×) and 1.11e-14%
Glucose labeling, UDP (C00015) (listed as D): 74.72% and 81.32% and 85.65% and 45.74% and 66.67% and 72.12%
Glucose labeling, UDP-Glc (C00029) (listed as D): 95.49% and 96.74% and 98.34% and 91.90% and 85.90% and 94.22%
Glucose labeling, UDP-GlcNAc (C00043) (listed as D): 91.41% and 90.20% and 90.50% and 87.89% and 87.54% and 87.94%
Glucose labeling, UMP (C00105) (listed as D): 79.30% and 82.81% and 83.09% and 50.51% and 65.12% and 69.81%
Glucose labeling, UTP (C00075) (listed as D): 90.44% and 89.69% and 89.62% and 94.73% and 88.15% and 87.27%
Glucose labeling, Uracil (C00106) (listed as D): 0.0737% (3×) and 0.06% and 0.05% and 0.065%
Glucose labeling, Uric Acid (C00366) (listed as D): 0.00% (4×) and -2.22e-14% (2×)
Glucose labeling, Urocanate (C00785) (listed as D): 0.00% (5×) and 1.11e-14%
Glucose labeling, Vit-C (C00072) (listed as D): 0.00% (4×) and 1.11e-14% (2×)
Glucose labeling, Xanthine (C00385) (listed as D): 0.10% (2×) and 0.12% (3×) and 0.08%
Relative level, Isocaproate (listed as D): 1.0 (2×) and 0.8 and 0.9 (3×)
Relative level, Lac (listed as D): 1.1 and 0.9 and 1.0 and 0.446 and 0.548 and 0.7
Relative level, Leu/Ile (listed as D): 1.0 and 1.3 and 1.5 and 0.8 (2×) and 0.9
Relative level, Lys (listed as D): 1.2 (2×) and 1.5 and 0.8 (2×) and 0.9
Relative level, Mal (listed as D): 0.8 and 1.0 and 1.4 and 0.339 and 0.53 and 0.65
Relative level, Met (listed as D): 1.0 and 1.3 and 1.4 and 0.8 (2×) and 0.9
Relative level, N-Carbamoyl-L-aspartate (listed as D): 0.7 and 1.5 and 2.9 and 0.5
Relative level, NAD+ (listed as D): 0.8 and 1.1 (2×) and 1.3 and 0.553 and 0.7
Relative level, NADP+ (listed as D): 1.6 and 0.273
Relative level, Nicotinamide (listed as D): 1.3 and 1.4 and 1.2 and 0.7 and 0.743 and 0.527
Relative level, Ornithine (listed as D): 1.6 and 0.9 and 1.1 and 0.8 (2×) and 1.0
Relative level, Orotate (listed as D): 0.468 and 0.9 and 0.8 and 0.0556 and 0.0189
Relative level, Orotidine (listed as D): 1.2 and 1.6 and 1.5 and 0.8 (2×) and 0.9
Relative level, P-Choline (listed as D): 1.0 and 1.1 and 1.4 and 0.5 (2×) and 0.65
Relative level, P-Creatine (listed as D): 0.8 and 0.6 and 1.6 and 2.2 and 1.2 and 1.5
Relative level, P-EtA (listed as D): 0.9 and 0.452 and 1.3 and 0.5 and 0.6 and 0.8
Relative level, P-Ser (listed as D): 1.2 and 1.3 (2×) and 0.3 and 0.317 and 0.334
Relative level, Palmitate (listed as D): 1.1 (4×) and 0.85 and 0.9
Relative level, Pantothenate (listed as D): 1.2 and 1.6 and 1.7 and 0.9 (3×)
Relative level, Phe (listed as D): 1.1 and 1.4 and 1.6 and 0.9 (2×) and 1.0
Relative level, Pipecolate (listed as D): 1.2 and 1.1 and 1.4 and 0.8 and 0.7 and 0.9
Relative level, Pro (listed as D): 1.0 and 1.3 (2×) and 0.8 (2×) and 0.753
Relative level, Pro-OH (listed as D): 1.1 and 1.2 and 1.3 and 0.8 (2×) and 0.75
Relative level, Pyr (listed as D): 0.171 and 2.0 and 11.3 and 1.7 and 3.4 and 3.3
Relative level, R5P (listed as D): 0.9 and 0.4 and 2.2 and 0.2
